From patent publication US4076931A, “Derivatives of an antibiotic XK-62-2 and the process for the production thereof” (Abbott Laboratories, priority 1974, dated 1978)
Values after ≈ are worked out from the molar mass of the structure shown. Where two headings read alike, the source gives them in different places.

Experiments:
Assay type in all cases: cell-based
[1] = system: Staphylococcus aureus ATCC 6538P; assay: Minimum inhibitory concentration by agar dilution method, Staphylococcus aureus ATCC 6538P; conditions: for MIC: ATCC6538P
Source text: (§1) Table 1 illustrates minimum inhibitory concentration of 1-N-(α-hydroxy-δ-aminovaleryl)XK-62-2 and 1-N-(α-hydroxy-ε- aminocaproyl)XK-62-2 against various Gram-negative and Gram-positive bacteria determined by agar dilution method.

[2] = system: Bacillus subtilis No. 10707; assay: Minimum inhibitory concentration by agar dilution method, Bacillus subtilis No. 10707
Source text: as §1

Escherichia coli KY 8327 = assay: Minimum inhibitory concentration by agar dilution method, Escherichia coli KY 8327; conditions: for MIC: KY8327; for antibacterial activity: Escherichia coli KY 8327, resistant to kanamycins and gentamicins, in words
Source text: as §1
(§2) In the above Table 1, Escherichia coli KY 8327 and KY 8348 respectively produce adenyltransferase and acetyltransferase intracellularly; the former enzyme inactivates kanamycins and gentamicins by adenylation, and the latter inactivates gentamicins by acetylation.

Escherichia coli KY 8348 = assay: Minimum inhibitory concentration by agar dilution method, Escherichia coli KY 8348; conditions: for MIC: KY8348; for antibacterial activity: Escherichia coli KY 8348, resistant to known aminoglycoside antibiotics, in words
Source text: as §1, §2

Escherichia coli ATCC 26 = assay: Minimum inhibitory concentration by agar dilution method, Escherichia coli ATCC 26
Source text: as §1

[3] = system: Salmonella typhosa ATCC 9922; assay: Minimum inhibitory concentration by agar dilution method, Salmonella typhosa ATCC 9922; conditions: for MIC: Salmonella enterica, read-out: Minimum Inhibitory Concentration
Source text: as §1

[4] = system: Pseudomonas aeruginosa BMH No. 1; assay: Minimum inhibitory concentration by agar dilution method, Pseudomonas aeruginosa BMH No. 1; conditions: for MIC: BMHNO.1
Source text: as §1

[5] = system: Shigella sonnel ATCC 9290; assay: Minimum inhibitory concentration by agar dilution method, Shigella sonnel ATCC 9290; conditions: for MIC: Shigella, ATCC9290, read-out: Minimum Inhibitory Concentration
Source text: as §1

[6] = system: Klebsiella penumoniae ATCC 10031; assay: Minimum inhibitory concentration by agar dilution method, Klebsiella penumoniae ATCC 10031; conditions: for MIC: ATCC10031
Source text: as §1

[7] = system: Proteus vulgaris ATCC 6897; assay: Minimum inhibitory concentration by agar dilution method, Proteus vulgaris ATCC 6897
Source text: as §1

[8] = system: Escherichia coli strains having R factors; assay: Antibacterial activity against Escherichia coli strains having R factors; conditions: resistant to known aminoglycoside antibiotics, in words
Source text: as §1

[9] = Escherichia coli KY 8327 (produces adenyltransferase), agar dilution method
[10] = Escherichia coli KY 8348 (produces acetyltransferase), agar dilution method

Compound `CNC[C@@H]1CC[C@@H](N)[C@@H](O[C@H]2[C@H](O)[C@@H](O[C@H]3OC[C@](C)(O)[C@H](NC)[C@H]3O)[C@H](N)C[C@@H]2N)O1` [XK-62-2] has an MIC [1] of less than 0.004 µg/mL, an MIC [2] of less than 0.004 µg/mL and an MIC (Escherichia coli KY 8327; [9]) of 1.04 µg/mL (≈ 2.24 µM). It also gave an MIC (Escherichia coli KY 8348; [10]) of 1.04 µg/mL (≈ 2.24 µM), an MIC (Escherichia coli ATCC 26; Escherichia coli, ATCC26, read-out: Minimum Inhibitory Concentration) of 0.016 µg/mL (≈ 0.0345 µM) and an MIC [3] of 0.008 µg/mL (≈ 0.0173 µM). The MIC [4] was 0.13 µg/mL (≈ 0.28 µM), the MIC [5] was 0.033 µg/mL (≈ 0.0712 µM) and the MIC [6] was less than 0.004 µg/mL. The MIC ([7]; Proteus vulgaris, ATCC6897, read-out: Minimum Inhibitory Concentration) was 0.016 µg/mL (≈ 0.0345 µM).
In the case of `CNC[C@@H]1CC[C@@H](N)[C@@H](O[C@H]2[C@H](O)[C@@H](O[C@H]3OC[C@](C)(O)[C@H](NC)[C@H]3O)[C@H](NC(=O)[C@@H](O)CCCN)C[C@@H]2N)O1` [1-N-[L-(-)-α-hydroxy-δ-aminovaleryl]XK-62-2], the MIC [1] was 0.008 µg/mL (≈ 0.0138 µM), the MIC [2] was less than 0.004 µg/mL and the antibacterial activity (Escherichia coli KY 8327) was “very strong antibacterial activity”. For the same compound, the MIC (Escherichia coli KY 8327; [9]) was 0.065 µg/mL (≈ 0.112 µM), the antibacterial activity (Escherichia coli KY 8348) was “very strong antibacterial activity” and the MIC (Escherichia coli KY 8348; [10]) was 0.033 µg/mL (≈ 0.057 µM). For the same compound, the MIC (Escherichia coli ATCC 26; ATCC26, Escherichia coli ATCC 26, agar dilution method, read-out: Minimum Inhibitory Concentration) was 0.033 µg/mL (≈ 0.057 µM), the MIC [3] was 0.016 µg/mL (≈ 0.0276 µM) and the MIC [4] was 0.52 µg/mL (≈ 0.899 µM). For the same compound, the MIC [5] was 0.065 µg/mL (≈ 0.112 µM), the MIC [6] was 0.008 µg/mL (≈ 0.0138 µM) and the MIC ([7]; ATCC6897, Proteus vulgaris ATCC 6897, agar dilution method, read-out: Minimum Inhibitory Concentration) was 0.065 µg/mL (≈ 0.112 µM). For the same compound, the antibacterial activity [8] was “strong antibacterial activity”.
In the case of “1-N-[L-(-)-α-hydroxy-ε-aminocaproyl]XK-62-2”, the “Minimum Inhibitory Concentration” value [1] was 0.033 µg/mL, the “Minimum Inhibitory Concentration” value [2] was 0.008 µg/mL and the “Minimum Inhibitory Concentration” value (Escherichia coli KY 8327; [9]) was 0.013 µg/mL. For the same compound, the antibacterial activity (Escherichia coli KY 8327) was “very strong antibacterial activity”, the “Minimum Inhibitory Concentration” value (Escherichia coli KY 8348; [10]) was 0.065 µg/mL and the antibacterial activity (Escherichia coli KY 8348) was “very strong antibacterial activity”. The “Minimum Inhibitory Concentration” value (Escherichia coli ATCC 26; Escherichia coli ATCC 26, agar dilution method) was 0.13 µg/mL, the “Minimum Inhibitory Concentration” value ([3]; Salmonella typhosa ATCC 9922, agar dilution method) was 0.065 µg/mL and the “Minimum Inhibitory Concentration” value [4] was 4.17 µg/mL. For the same compound, the “Minimum Inhibitory Concentration” value ([5]; Shigella sonnel ATCC 9290, agar dilution method) was 0.26 µg/mL, the “Minimum Inhibitory Concentration” value [6] was 0.033 µg/mL and the “Minimum Inhibitory Concentration” value ([7]; Proteus vulgaris ATCC 6897, agar dilution method) was 0.26 µg/mL. For the same compound, the antibacterial activity [8] was “strong antibacterial activity”.
